Publication PMC4104761, “Identification of a novel lytic peptide for the treatment of solid tumours” (Genes & Cancer, 2014)

Columns and labels:
[1] = system: 142Br normal human skin fibroblasts; experiment: LIVE/DEAD Viability/Cytotoxicity assay; assay type: cell-based; details: morphometric evaluation (Calcein), 35 µg Cypep-1/ml, 3 hours
Experimental: (§1) In order to visualise and quantify the cytotoxic action of Cypep-1 simultaneously, the LIVE/DEAD® Viability/Cytotoxicity Kit was employed according to the manufacturers instructions on monolayers of 30 000 cells in sterile 24 multi well dishes (Nunc™, Roskilde, Denmark), using the selected human osteosarcoma cell lines U2OS and SaOs2 as well as the two human fibroblast cell lines HFF1 (foreskin) and 142Br (skin).
(§2) The monolayer cultures were incubated with Cypep-1 for a period of 3 hours in concentrations ranging from 2.5 µg to 35 µg/ml. The cells were observed using an inverted fluorescence microscope (Nikon Eclipse 2000E, Tokyo, Japan) equipped with FITC (green fluorescence) and TRITC (red fluorescence) filter optics. The fluorescent cells were then photographed at a 10x magnification. The proportions of viable cells (live cells showing green fluorescence due to the presence of Calcein) and dead cells (red fluorescent due to the membrane penetration of Ethidium-Homodimer-1) were quantified using a Lucia G Morphometry System, Version 4.71 (Laboratory Imaging, Prague, Czech Republic).

[2] = system: HFF1 normal human foreskin fibroblasts; experiment: LIVE/DEAD Viability/Cytotoxicity assay; assay type: cell-based; details: morphometric evaluation (Calcein), 35 µg Cypep-1/ml, 3 hours
Experimental: as §1, §2

BALB/c mice = experiment: In vivo toxicity after tail vein injection; parameters: species or system mouse; details: 100 µl bolus per animal
Experimental: Cypep-1 was injected into the lateral tail vein of 37 BALB/c mice (average age 131,7 days; average weight 25.2 g). In detail, the group consisted of 18 male (average weight 26.5g) and 19 female animals (average weight 23.9g). The respective peptide concentrations administered were increased systematically from 50µg up to 800µg Cypep-1 per bolus per animal. All Cypep-1 doses were adjusted to a total injection volume of 100µl 0,9% NaCl, which remained constant for all animals. Throughout the experiment, a group of 4 animals (2 males/ 2 females) received the same Cypep-1 concentrations per bolus, respectively. All injections were performed very slowly in order to avoid cardiac stress. The mice were then observed for a period of 24h with regards to signs of distress and pain (e.g. orbital tightening, flattened ear position, formation of nose and/or cheek bulge, whisker change, overall activity level) as well as potential toxic effects. During the first 2 hours, the animals were monitored continuously and then checked again at 4 h, 6 h, 12 h and 24 h post injection.

[3] = system: osteosarcoma cell lines (U2OS, SaOs2); experiment: LIVE/DEAD Viability/Cytotoxicity assay; assay type: cell-based, human; details: morphometric evaluation (Calcein), 35 µg Cypep-1/ml, 3 hours
Experimental: as §1, §2

[4] = system: 4T1 murine mammary carcinoma allografts; experiment: Treatment of subcutaneous 4T1 murine breast cancer allografts; assay type: in vivo, BALB/c mice
Experimental: 10^6 4T1 murine metastatic breast cancer cells were grafted subcutaneously under Isofluran anaesthesia into the right upper quadrant of the back of 20 female BALB/c mice (average age 126,25 days; average weight 23.8g). At day 12, when the tumours of both groups had reached a tumour volume of 0.12cm^3 in average, 10 female mice (average weight 23.9 g) received a single intra-tumoural injection of 1200 µg of Cypep-1 dissolved in 300 µl 0.9% NaCl, whereas an equal injection volume of 0.9% NaCl was administered to the 10 animals of the control group (average weight 23.7 g). All injections were performed under isofluoran gas anaesthesia. The animals were then observed for signs of distress as described above. 24 hours after the injections, two animals (one assigned to the control and one of the treatment group) were sacrificed for histological analysis. The harvested tumours were immediately fixed in 4% buffered formaldehyde and embedded in paraffin, cut into 5 µm sections and stained with H&E.
In the remaining 18 experimental animals, the tumour size was measured at regular intervals (every 4th day) until day 24 post tumour grafting. All mice were monitored daily for signs of distress and pain. Those that became sick were euthanized humanely. All animal procedures described were in accordance with protocols approved by The National Animal Research Authority (Oslo, Norway).

[5] = system: 4T1 murine mammary carcinoma cells; experiment: Time-lapse confocal microscopy; assay type: cell-based; details: 20 µg Cypep-1/ml for 3 hours; strongest effect between 40 and 55 min
Experimental: 30.000 cells of the murine mammary carcinoma cell line 4T1 were seeded into a sterile 24 well dish (Nunc™, Roskilde, Denmark). After 24 hours, the monolayer culture was treated with 20µg Cypep-1/ml, followed by immediate observation of the cells at 37°C and 5% CO2 for a period of 3 hours by means of time-lapse confocal microscopy, using a Zeiss LSM510 Meta System (Carl Zeiss AG, Jena, Germany), equipped with both bright field optics and red fluorescence optics at 595nm. The same experiment was repeated as described above with 4T1 cells that had previously been stably transfected with red fluorescent protein, using a dsRed-expressing lentiviral vector pWPXL-dsRED as previously described by Niclou et al..

[6] = Surface plasmon resonance (SPR) binding to liposomes; details: BIAcore 3000, L1 chip, curve fitting
Experimental: SPR was used to quantify the binding of Cypep-1 to phospholipid model membranes of different compositions at neutral pH (pH 7.4) and a temperature of 25 °C. 100 nm liposomes made of egg yolk […] (EYL; L-α-phosphatidylcholine; 95% purity) were employed to represent amphitropic, neutral membranes, while liposomes composed of both pig brain L-α-phosphatidylserine (PBPS) and EYL (from Avanti Polar Lipids Inc., Alabaster, Alabama, USA), with PBPS:EYL in a 1:1 M: M mixture, represented acidic, negatively charged membranes. […] [79]. The SPR analyses were carried out on a BIAcore 3000 instrument (BIAcore AB, Uppsala, Sweden) as described in Halskau et al., using a L1 sensor chip from BIAcore (BIAcore AB, Uppsala, Sweden).

## YGRKKRRQRRRGKTLRVAKAIYKRYIE [Cypep-1]
[1]
  viability: 81%
[2]
  viability: 64%
BALB/c mice; slow tail vein injection
  dose with first signs of toxicity (seizure-like catatonic stupor): 600 µg
BALB/c mice; slow tail vein injection, 24 h observation
  dose with no signs of distress or pain: up to 500 µg
BALB/c mice; tail vein injection, death within 5 - 10 min
  lethal dose: 800 µg
[3]
  average surviving fraction: lower than 5%
[4]; 24 hours after intra-tumoural administration of 1200 µg, H&E
  histological analysis of tumours: extensive areas of necrosis
[4]; single intra-tumoural injection of 1200 µg at day 12, control 3.5 cm^3, P<0.0001
  average tumour volume at day 24: 1.1 cm^3
[4]; single intra-tumoural injection of 1200 µg at day 12, control 20 days, P<0.0011
  median survival: 32 days
[4]; single intra-tumoural injection of 1200 µg in 300µl 0.9% NaCl, BALB/c mice
  signs of discomfort, pain or toxicity after intratumoural injection: None of the animals showed any signs of discomfort, pain or toxicity
[5]
  membrane disruption by time-lapse confocal microscopy: extensive loss of cell content into the medium
[6]; 100 nm EYL liposomes, pH 7.4, 25 °C
  peptide concentration of half-maximal binding (S0.5): 39.1 ± 5.3 µg/mL
[6]; 100 nm liposomes PBPS:EYL 1:1, pH 7.4, 25 °C
  peptide concentration of half-maximal binding (S0.5): 16.2 ± 4.4 µg/mL
